Target: T1, Sirt6 (Homo sapiens, UniProt Q8N6T7)
T1 construct: purchased CycLex CY-1156V2
Assay: Measurement of Sirt6 Activity (CycLex Sirt6 Deacetylase Fluorometric Assay Kit)
Format: biochemical
Conditions: compound at 10 μM, fluorescence relative to the group without compound treatment (positive control group)
Experimental: LC-MS (ESI, m/z)=430.1 (M+H^+) Experimental Example 1: Measurement of Sirt6 Activity Compounds having Sirt6 activity were selected using a CycLex Sirt6 Deacetylase Fluorometric Assay Kit (cat. CY-1156V2) manufactured by CycLex.
When a fluorescent-attached acetylated lysine substrate is treated with Sirt6 enzyme, Sirt6 deacetylates the acetylated lysine of the substrate and lysylendopeptidase cleaves the C-terminal peptide bond connected to the lysine, by which fluorescence is emitted. The activity of a compound is calculated by observing the intensity of fluorescence when the compound is treated along with Sirt6 enzyme. When treating the compound, the compound aids in the activity of Sirt6 enzyme, so as to result in stronger fluorescence. Therefore, by calculating the ratio of the stronger fluorescence relative to the fluorescence emitted from the group without compound treatment (i.e., positive control group), relative activity can be calculated.
Activity evaluation was performed according to the following procedure.
The compound whose activity is to be evaluated was prepared by diluting in phosphate-buffered saline (PBS) to 10 times of the desired concentration (e.g., when measuring Sirt6 assay activity at 10 μM, the compound is prepared at a concentration of 100 μM in PBS). 1 μL of a 1 Ox Sirt6 assay buffer, 0.8 μL of 50× fluoro-substrate peptide, 1 μL of nicotinamide adenine dinucleotide (NAD), 1 μL of a developer and 4.2 μL of H2O were mixed to prepare mixtures equal to the number of samples, and 8 μL was dispensed into each Black 384 well. An additional 1 μL of PBS was added to each of a “no enzyme group” and a positive control group, and 1 μL of the compound diluted in PBS was added to an activity evaluation group. Recombinant Sirt6 was 1:8 diluted in a 1×Sirt6 assay buffer, and 1 μL thereof was added to each of the positive control group and the activity evaluation group. 1 μL of the 1×Sirt6 assay buffer was added to the “no enzyme group.” After reacting at room temperature for one hour, results were measured with a fluorescence spectrometer (excitation: 490±10 nm, emission: 530±10 nm) to confirm the presence or absence of Sirt6 activity and measure the intensity of the activity.

T1 sequence (Q8N6T7 whole entry): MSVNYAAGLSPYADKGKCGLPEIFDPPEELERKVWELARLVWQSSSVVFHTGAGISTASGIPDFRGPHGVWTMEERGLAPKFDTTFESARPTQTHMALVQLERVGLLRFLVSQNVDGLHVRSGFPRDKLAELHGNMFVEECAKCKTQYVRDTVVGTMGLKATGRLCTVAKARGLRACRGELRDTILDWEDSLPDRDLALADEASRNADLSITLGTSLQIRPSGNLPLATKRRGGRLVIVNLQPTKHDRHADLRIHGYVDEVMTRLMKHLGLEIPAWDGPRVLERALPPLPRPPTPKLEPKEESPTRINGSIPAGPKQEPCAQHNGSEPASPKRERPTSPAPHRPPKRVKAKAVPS

Sirt6 Activity (% activity, 10 μM)	Sirt6 Activity (% activity, 10 μM) (10 µM)	SMILES
167 % activity		C/[N+]([O-])=C/c1cccc(-c2nn(-c3ccc(F)cc3F)c(=O)c3ccccc23)c1 [Example 21, (Z)-1-(3-(3-(2,4-Difluorophenyl)-4-oxo-3,4-dihydrophthalazin-1-yl)phenyl)-N-methyl methanimine Oxide]
201 % activity		CC(C)/[N+]([O-])=C/c1cccc(-c2nn(-c3ccc(F)cc3F)c(=O)c3ccccc23)c1 [Example 22, (Z)-1-(3-(3-(2,4-Difluorophenyl)-4-oxo-3,4-dihydrophthalazin-1-yl)phenyl)-N-isopropyl Methanimine Oxide]
180 % activity		COC(=O)NS(=O)(=O)Nc1cccc(-c2nn(-c3ccc(F)cc3F)c(=O)c3ccccc23)c1 [Example 26, Methyl (N-(3-(3-(2,4-difluorophenyl)-4-oxo-3,4-dinydrophthalazin-1-yl)phenyl)sulfamoyl)carbamate]
148 % activity		C/[N+]([O-])=C/c1cccc(-c2nn(-c3cccc(F)c3)c(=O)c3ccccc23)c1 [Example 27, (Z)-1-(3-(3-(3-Fluorophenyl)-4-oxo-3,4-dihydrophthalazin-1-yl)phenyl)-N-methylmethanimine Oxide]
162 % activity		CC(C)(C)/[N+]([O-])=C/c1cccc(-c2nn(-c3cccc(F)c3)c(=O)c3ccccc23)c1 [Example 29, (Z)—N-tert-Butyl-1-(3-(3-(3-fluorophenyl)-4-oxo-3,4-dihydrophthalazin-1-yl)phenyl)methanimine Oxide]
117 % activity		CCS(=O)(=O)Nc1cccc(-c2nn(-c3cccc(F)c3)c(=O)c3ccccc23)c1 [Example 30, N-(3-(3-(3-Fluorophenyl)-4-oxo-3,4-dihydrophthalazin-1-yl)phenyl)ethanesulfonamide]
124 % activity		COc1ccc(-n2nc(-c3cccc(/C=[N+](\[O-])C(C)C)c3)c3ccccc3c2=O)cc1 [Example 32, (Z)—N-Isopropyl-1-(3-(3-(4-methoxyphenyl)-4-oxo-3,4-dihydrophthalazin-1-yl)phenyl) Methanimine Oxide]
142 % activity		C/[N+]([O-])=C\c1ccc(-c2nn(-c3ccc(F)cc3)c(=O)c3ccccc23)cc1 [Example 36, (E)-1-(4-(3-(4-Fluorophenyl)-4-oxo-3,4-dihydrophthalazin-1-yl)phenyl)-N-methylmethanimine Oxide]
143 % activity		C/[N+]([O-])=C\c1ccc(-c2nn(-c3ccc(F)cc3)c(=O)c3ccccc23)c(F)c1 [Example 38, (E)-1-(3-Fluoro-4-(3-(4-fluorophenyl)-4-oxo-3,4-dihydrophthalazin-1-yl)phenyl)-N-methylmethanimine Oxide]
160 % activity		C/[N+]([O-])=C/c1ccccc1-c1nn(-c2ccc(F)cc2)c(=O)c2ccccc12 [Example 40, (Z)-1-(2-(3-(4-Fluorophenyl)-4-oxo-3,4-dihydrophthalazin-1-yl)phenyl)-N-methylmethanimine Oxide]
205 % activity		CC(C)(C)/[N+]([O-])=C/c1cccc(-c2nn(-c3ccc(F)cc3)c(=O)c3ccccc23)c1 [Example 43, (Z)—N-tert-Butyl-1-(3-(3-(4-fluorophenyl)-4-oxo-3,4-dihydrophthalazin-1-yl)phenyl)methanimine Oxide]

The next lines start with the molecule.

SMILES	Sirt6 Activity (% activity, 10 μM)	Sirt6 Activity (% activity, 10 μM) (10 µM)
CC/[N+]([O-])=C/c1cccc(-c2nn(-c3ccc(F)cc3)c(=O)c3ccccc23)c1 [Example 16, (Z)—N-Ethyl-1-(3-(3-(4-fluorophenyl)-4-oxo-3,4-dihydrophthalazin-1-yl)phenyl)methanimine Oxide]	221 % activity	
CC(C)/[N+]([O-])=C/c1cccc(-c2nn(-c3ccc(F)cc3)c(=O)c3ccccc23)c1 [Example 17, (Z)-1-(3-(3-(4-Fluorophenyl)-4-oxo-3,4-dihydrophthalazin-1-yl)phenyl)-N-isopropylmethanimine Oxide]		207 % activity
CS(=O)(=O)N(c1cc(-c2nn(-c3ccccc3)c(=O)c3ccccc23)ccc1Cl)S(C)(=O)=O [Example 18, N-(2-Chloro-5-(4-oxo-3-phenyl-3,4-dihydrophthalazin-1-yl)phenyl)-N-(methylsulfonyl)methane-sulfonamide]	114 % activity	
CN(C)S(=O)(=O)Nc1cc(-c2nn(-c3ccccc3)c(=O)c3ccccc23)ccc1Cl [Example 19, N-(3-(3-(Phenyl)-4-oxo-3,4-dihydrophthalazin-1-yl)-6-chlorophenyl)dimethyl Sulfamoylamide]	120 % activity	
COC(=O)NS(=O)(=O)Nc1cccc(-c2nn(-c3ccc(F)cc3)c(=O)c3ccccc23)c1 [Example 20, Methyl (N-(3-(3-(4-fluorophenyl)-4-oxo-3,4-dihydrophthalazin-1-yl)phenyl)sulfamoyl) Carbamate]	211 % activity	
CC(C)(C)/[N+]([O-])=C/c1cccc(-c2nn(-c3ccc(F)cc3F)c(=O)c3ccccc23)c1 [Example 23, (Z)—N-tert-Butyl-1-(3-(3-(2,4-difluorophenyl)-4-oxo-3,4-dihydrophthalazin-1-yl)phenyl)methanimine Oxide]	192 % activity	
Nc1cccc(-c2nn(-c3ccc(F)cc3F)c(=O)c3ccccc23)c1 [Example 24, 4-(3-Aminophenyl)-2-(2,4-difluorophenyl)phthalazin-1(2H)-one]	147 % activity	
CCS(=O)(=O)Nc1cccc(-c2nn(-c3ccc(F)cc3F)c(=O)c3ccccc23)c1 [Example 25, N-(3-(3-(2,4-Difluorophenyl)-4-oxo-3,4-dihydrophthalazin-1-yl)phenyl)ethanesulfonamide]	147 % activity	
CC(C)/[N+]([O-])=C/c1cccc(-c2nn(-c3cccc(F)c3)c(=O)c3ccccc23)c1 [Example 28, (Z)-1-(3-(3-(3-Fluorophenyl)-4-oxo-3,4-dihydrophthalazin-1-yl)phenyl)-N-isopropylmethanimine Oxide]	154 % activity	
CC(C)/[N+]([O-])=C/c1cccc(-c2nn(-c3cc(F)cc(F)c3)c(=O)c3ccccc23)c1 [Example 31, (Z)-1-(3-(3-(3,5-Difluorophenyl)-4-oxo-3,4-dihydrophthalazin-1-yl)phenyl)-N-isopropyl Methanimine Oxide]	171 % activity	
CC(C)/[N+]([O-])=C/c1cccc(-c2nn(-c3ccc(F)c(Cl)c3)c(=O)c3ccccc23)c1 [Example 33, (Z)-1-(3-(3-(3-Chloro-4-fluorophenyl)-4-oxo-3,4-dihydrophthalazin-1-yl)phenyl)-N-isopropyl-methanimine Oxide]	183 % activity	
CC(C)(C)/[N+]([O-])=C/c1cccc(-c2nn(-c3ccc(F)c(Cl)c3)c(=O)c3ccccc23)c1 [Example 34, (Z)—N-tert-Butyl-1-(3-(3-(3-chloro-4-fluorophenyl)-4-oxo-3,4-dihydrophthalazin-1-yl)phenyl) Methanimine Oxide]	176 % activity	
O=c1c2ccccc2c(-c2cccc(/C=[N+](\[O-])Cc3ccccc3)c2)nn1-c1ccccc1 [Example 35, (Z)—N-Benzyl-1-(3-(4-oxo-3-phenyl-3,4-dihydrophthalazin-1-yl)phenyl)methanimine Oxide]	113 % activity	
CC(C)/[N+]([O-])=C/c1cccc(-c2nn(-c3ccc(F)cc3)c(=O)c3ccccc23)c1 [Example 37, (Z)-1-(3-(3-(4-Fluorophenyl)-4-oxo-3,4-dihydrophthalazin-1-yl)phenyl)-N-isopropyl methanimine Oxide]		126 % activity
CC(C)/[N+]([O-])=C\c1ccc(-c2nn(-c3ccc(F)cc3)c(=O)c3ccccc23)c(F)c1 [Example 39, (E)-1-(3-Fluoro-4-(3-(4-fluorophenyl)-4-oxo-3,4-dihydrophthalazin-1-yl)phenyl)-N-isopropylmethanimine Oxide]	106 % activity	
CC(C)/[N+]([O-])=C/c1ccccc1-c1nn(-c2ccc(F)cc2)c(=O)c2ccccc12 [Example 41, (Z)-1-(2-(3-(4-Fluorophenyl)-4-oxo-3,4-dihydrophthalazin-1-yl)phenyl)-N-isopropyl Methanimine Oxide]	129 % activity	
CC(C)(C)/[N+]([O-])=C/c1ccccc1-c1nn(-c2ccc(F)cc2)c(=O)c2ccccc12 [Example 42, (Z)—N-tert-Butyl-1-(2-(3-(4-fluorophenyl)-4-oxo-3,4-dihydrophthalazin-1-yl)phenyl)methanimine Oxide]	161 % activity	
